Experimental data from patent publication US20200291018A1, “TAM KINASE INHIBITORS” (SYROS PHARMACEUTICALS, INC., priority 2017, published 2020).
Where a name gives a salt, the structure may show the parent alone.

How the values were obtained:
MERTK = target: T1, MERTK (Homo sapiens, UniProt Q12866); test: TR-FRET kinase activity assay, MERTK; type: biochemical; details: for IC50: TR-FRET activity assay, ATP at Km, 60 minutes, read-out: Mer IC50; for Mer/Flt3 ratio (FLT3 IC50/Mer IC50): ratio calculated as FLT3 IC50/Mer IC50
T1 sequence (Q12866 21-999): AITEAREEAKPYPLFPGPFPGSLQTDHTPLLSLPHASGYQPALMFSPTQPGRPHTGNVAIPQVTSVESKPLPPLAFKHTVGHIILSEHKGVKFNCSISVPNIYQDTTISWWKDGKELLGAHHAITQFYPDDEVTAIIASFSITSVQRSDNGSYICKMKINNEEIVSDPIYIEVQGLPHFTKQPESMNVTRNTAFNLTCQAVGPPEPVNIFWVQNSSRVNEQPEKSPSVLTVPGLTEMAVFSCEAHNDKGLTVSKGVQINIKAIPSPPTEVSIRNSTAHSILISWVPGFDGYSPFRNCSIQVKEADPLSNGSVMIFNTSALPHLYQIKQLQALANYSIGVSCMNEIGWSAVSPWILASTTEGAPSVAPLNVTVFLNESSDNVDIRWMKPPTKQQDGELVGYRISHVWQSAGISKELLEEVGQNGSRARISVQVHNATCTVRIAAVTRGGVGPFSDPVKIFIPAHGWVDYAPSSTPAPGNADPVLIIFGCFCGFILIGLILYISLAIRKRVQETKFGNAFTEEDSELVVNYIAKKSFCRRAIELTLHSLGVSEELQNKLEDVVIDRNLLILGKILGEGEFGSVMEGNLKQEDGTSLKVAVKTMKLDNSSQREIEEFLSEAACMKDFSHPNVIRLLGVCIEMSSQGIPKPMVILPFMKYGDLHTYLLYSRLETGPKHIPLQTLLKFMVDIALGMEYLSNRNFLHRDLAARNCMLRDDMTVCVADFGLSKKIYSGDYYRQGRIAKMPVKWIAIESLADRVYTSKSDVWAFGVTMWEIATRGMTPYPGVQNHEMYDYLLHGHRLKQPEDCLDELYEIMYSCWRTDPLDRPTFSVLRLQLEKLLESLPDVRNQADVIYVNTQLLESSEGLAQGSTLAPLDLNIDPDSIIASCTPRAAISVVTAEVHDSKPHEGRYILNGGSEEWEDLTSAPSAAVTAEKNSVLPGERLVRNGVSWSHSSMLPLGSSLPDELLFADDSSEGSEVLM
Procedure: (§1) IC50 values for compound inhibition of AXL, FLT3, MERTK and TYRO3 activity were determined using a TR-FRET activity assay. A peptide substrate with a fluorescent label is phosphorylated on a tyrosine by each enzyme, where the now phosphorylated product is bound by a Europium-labeled antibody specific to that phosphorylation site. The proximity between the antibody and the substrate gives a signal known as TR-FRET. As the enzyme is inhibited by compound, less phosphorylated peptide product is made, causing a decrease in overall signal.
(§2) Activity assays were performed in a 384-well, small volume, black microplates in an active enzyme volume of 10 uL and final developed volume of 20 uL. Final assay conditions are 50 mM HEPES pH 7.5, 10 mM MgCl2, 1 mM EGTA, 0.01% Brij 35 and 1 mM DTT, all at RT. Enzyme, substrate-labeled peptide and compound are mixed, and then the reaction is initiated with the addition of ATP at Km concentration for each enzyme. The reaction is allowed to run 60 minutes and then quenched with a 12.5 mM EDTA (ethylenediamine tetraacetic acid) solution. The plate is then developed with the addition of Europium-labeled antibody for a final volume of 20 uL and is then incubated for 30 minutes in darkness. Plates are read in a PHERASTAR® plate reader. Data are analyzed in GraphPad PRISM.

TYRO3 = target: T2, TYRO3 (Homo sapiens, UniProt Q06418); test: TR-FRET kinase activity assay, TYRO3; type: biochemical; details: ATP at Km, 60 minutes
T2 sequence (Q06418 41-890): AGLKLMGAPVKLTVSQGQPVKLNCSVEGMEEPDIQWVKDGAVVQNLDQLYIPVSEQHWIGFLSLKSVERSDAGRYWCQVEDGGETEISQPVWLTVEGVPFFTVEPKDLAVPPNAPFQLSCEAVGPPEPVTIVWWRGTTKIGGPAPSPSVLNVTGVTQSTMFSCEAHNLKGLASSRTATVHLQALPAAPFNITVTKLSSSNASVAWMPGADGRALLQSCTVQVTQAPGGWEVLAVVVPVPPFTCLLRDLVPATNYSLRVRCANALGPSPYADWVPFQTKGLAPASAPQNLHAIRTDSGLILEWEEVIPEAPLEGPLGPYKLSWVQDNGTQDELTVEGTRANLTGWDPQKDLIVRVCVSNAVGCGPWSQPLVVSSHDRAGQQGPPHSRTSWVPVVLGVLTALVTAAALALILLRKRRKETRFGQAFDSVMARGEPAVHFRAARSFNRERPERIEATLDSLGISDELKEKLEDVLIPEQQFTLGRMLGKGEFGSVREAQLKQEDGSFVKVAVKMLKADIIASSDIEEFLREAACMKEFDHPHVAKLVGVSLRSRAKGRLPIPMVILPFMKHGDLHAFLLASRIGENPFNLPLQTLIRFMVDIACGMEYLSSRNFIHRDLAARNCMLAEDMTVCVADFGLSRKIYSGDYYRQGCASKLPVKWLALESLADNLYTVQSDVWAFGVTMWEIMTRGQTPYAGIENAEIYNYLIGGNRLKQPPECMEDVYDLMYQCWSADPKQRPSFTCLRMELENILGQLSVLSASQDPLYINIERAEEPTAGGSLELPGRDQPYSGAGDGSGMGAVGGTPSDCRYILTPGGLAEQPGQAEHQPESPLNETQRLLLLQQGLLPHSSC
Procedure: as §1, §2

CCCCNc1cc2c(cn1)c(OC1CCNCC1)ncc2[C@H]1CC[C@H](O)CC1 [Compound 107]
IC50 (MERTK): ≤ 100 nM
Mer/Flt3 ratio (FLT3 IC50/Mer IC50) (MERTK): ++ (a ratio of between 10 and 100)
IC50 (TYRO3): ≤ 100 nM

CCCCC[C@H](C)Nc1ncc2c(=O)n(C3CCOCC3)cc([C@H]3CC[C@H](O)CC3)c2n1 [Compound 108]
IC50 (MERTK): ≤ 100 nM
Mer/Flt3 ratio (FLT3 IC50/Mer IC50) (MERTK): +++ (a ratio of >100)
IC50 (TYRO3): ≤ 100 nM

CCCCNc1cc2c(cn1)c(=O)n(C1CCNCC1)cc2[C@H]1CC[C@H](O)CC1 [Compound 109, 6-(butylamino)-4-((1r,4r)-4-hydroxycyclohexyl)-2-(piperidin-4-yl)-2,7-naphthyridin-1(2H)-one hydrochloride]
IC50 (MERTK): ≤ 100 nM
Mer/Flt3 ratio (FLT3 IC50/Mer IC50) (MERTK): ++ (a ratio of between 10 and 100)
IC50 (TYRO3): ≤ 100 nM

CC[C@@H](C)Nc1ncc2c(OC3CCN(C)CC3)ncc([C@H]3CC[C@H](O)CC3)c2n1 [Compound 195]
IC50 (MERTK): ≤ 100 nM
Mer/Flt3 ratio (FLT3 IC50/Mer IC50) (MERTK): +++ (a ratio of >100)
IC50 (TYRO3): > 10000 nM

CCC[C@@H](C)Nc1ncc2c(OC3CCNCC3)ncc([C@H]3CC[C@H](O)CC3)c2n1 [Compound 196]
IC50 (MERTK): ≤ 100 nM
Mer/Flt3 ratio (FLT3 IC50/Mer IC50) (MERTK): +++ (a ratio of >100)
IC50 (TYRO3): ≤ 100 nM

Cc1cccc(Nc2ncc3c(OC4CCNCC4)ncc([C@H]4CC[C@H](O)CC4)c3n2)c1 [Compound 197]
IC50 (MERTK): ≤ 100 nM
Mer/Flt3 ratio (FLT3 IC50/Mer IC50) (MERTK): ++ (a ratio of between 10 and 100)
IC50 (TYRO3): ≤ 100 nM

Cc1cc(Cl)ccc1Nc1ncc2c(OC3CCNCC3)ncc([C@H]3CC[C@H](O)CC3)c2n1 [Compound 198]
IC50 (MERTK): 100 to 1000 nM
Mer/Flt3 ratio (FLT3 IC50/Mer IC50) (MERTK): + (a ratio of >2.0 and <10)
IC50 (TYRO3): ≤ 100 nM

CCCC(C)Nc1ncc2c(=O)n([C@H]3CCN(C)C[C@@H]3F)cc([C@H]3CC[C@H](O)CC3)c2n1 (stereo partly drawn) [Compound 199]
IC50 (MERTK): ≤ 100 nM
Mer/Flt3 ratio (FLT3 IC50/Mer IC50) (MERTK): +++ (a ratio of >100)
IC50 (TYRO3): ≤ 100 nM

CCCC(C)Nc1ncc2c(=O)n([C@@H]3CCCN(C)C3)cc([C@H]3CC[C@H](O)CC3)c2n1 (stereo partly drawn) [Compound 200]
IC50 (MERTK): ≤ 100 nM
Mer/Flt3 ratio (FLT3 IC50/Mer IC50) (MERTK): +++ (a ratio of >100)
IC50 (TYRO3): ≤ 100 nM

CCCC(C)Nc1ncc2c(=O)n(C3CCN(C4COC4)CC3)cc([C@H]3CC[C@H](O)CC3)c2n1 (stereo partly drawn) [Compound 201]
IC50 (MERTK): 100 to 1000 nM
Mer/Flt3 ratio (FLT3 IC50/Mer IC50) (MERTK): +++ (a ratio of >100)
IC50 (TYRO3): ≤ 100 nM

CC(Nc1ncc2c(OC3CCNCC3)ncc([C@H]3CC[C@H](O)CC3)c2n1)c1ccncc1 (stereo partly drawn) [Compound 202]
IC50 (MERTK): 100 to 1000 nM
Mer/Flt3 ratio (FLT3 IC50/Mer IC50) (MERTK): ++ (a ratio of between 10 and 100)
IC50 (TYRO3): ≤ 100 nM

CCCC(C)Nc1ncc2c(OC3CCNCC3)ncc([C@H]3CC[C@H](O)CC3)c2n1 (stereo partly drawn) [Compound 203]
IC50 (MERTK): ≤ 100 nM
Mer/Flt3 ratio (FLT3 IC50/Mer IC50) (MERTK): + (a ratio of >2.0 and <10)
IC50 (TYRO3): ≤ 100 nM

CCC[C@@H](C)Nc1ncc2c(OC3CCNCC3)ncc([C@H]3CC[C@@H](O)CC3)c2n1 [Compound 204]
IC50 (MERTK): ≤ 100 nM
Mer/Flt3 ratio (FLT3 IC50/Mer IC50) (MERTK): ++ (a ratio of between 10 and 100)
IC50 (TYRO3): 100 to 1000 nM

O[C@H]1CC[C@H](c2cnc(OC3CCNCC3)c3cnc(Nc4cccc(Cl)c4)nc32)CC1 [Compound 205]
IC50 (MERTK): ≤ 100 nM
Mer/Flt3 ratio (FLT3 IC50/Mer IC50) (MERTK): ++ (a ratio of between 10 and 100)
IC50 (TYRO3): ≤ 100 nM

O[C@H]1CC[C@H](c2cnc(OC3CCNCC3)c3cnc(Nc4ccc(Cl)cc4)nc32)CC1 [Compound 206]
IC50 (MERTK): ≤ 100 nM
Mer/Flt3 ratio (FLT3 IC50/Mer IC50) (MERTK): + (a ratio of >2.0 and <10)
IC50 (TYRO3): ≤ 100 nM

CCc1cccc(Nc2ncc3c(OC4CCNCC4)ncc([C@H]4CC[C@H](O)CC4)c3n2)c1 [Compound 207]
IC50 (MERTK): ≤ 100 nM
Mer/Flt3 ratio (FLT3 IC50/Mer IC50) (MERTK): ++ (a ratio of between 10 and 100)
IC50 (TYRO3): 100 to 1000 nM

CCC[C@@H](C)Nc1ncc2c(OC3CCN(C)CC3)ncc([C@H]3CC[C@H](O)CC3)c2n1 [Compound 208]
IC50 (MERTK): ≤ 100 nM
Mer/Flt3 ratio (FLT3 IC50/Mer IC50) (MERTK): +++ (a ratio of >100)
IC50 (TYRO3): 100 to 1000 nM

Cc1ccc(Cl)cc1Nc1ncc2c(OC3CCNCC3)ncc([C@H]3CC[C@H](O)CC3)c2n1 [Compound 209]
IC50 (MERTK): 100 to 1000 nM
Mer/Flt3 ratio (FLT3 IC50/Mer IC50) (MERTK): NS (a ratio of ≤2.0)
IC50 (TYRO3): ≤ 100 nM

O[C@H]1CC[C@H](c2cnc(OC3CCNCC3)c3cnc(Nc4ccccc4)nc32)CC1 [Compound 210]
IC50 (MERTK): ≤ 100 nM
Mer/Flt3 ratio (FLT3 IC50/Mer IC50) (MERTK): + (a ratio of >2.0 and <10)
IC50 (TYRO3): ≤ 100 nM

O[C@H]1CC[C@H](c2cnc(OC3CCNCC3)c3cnc(NC4CCOCC4)nc32)CC1 [Compound 211]
IC50 (MERTK): ≤ 100 nM
Mer/Flt3 ratio (FLT3 IC50/Mer IC50) (MERTK): ++ (a ratio of between 10 and 100)
IC50 (TYRO3): 100 to 1000 nM

CC(C)CNc1ncc2c(OC3CCNCC3)ncc([C@H]3CC[C@H](O)CC3)c2n1 [Compound 212]
IC50 (MERTK): ≤ 100 nM
Mer/Flt3 ratio (FLT3 IC50/Mer IC50) (MERTK): ++ (a ratio of between 10 and 100)
IC50 (TYRO3): ≤ 100 nM

O[C@H]1CC[C@H](c2cnc(OC3CCNCC3)c3cnc(N[C@@H]4CCOC4)nc32)CC1 [Compound 213]
IC50 (MERTK): ≤ 100 nM
Mer/Flt3 ratio (FLT3 IC50/Mer IC50) (MERTK): ++ (a ratio of between 10 and 100)
IC50 (TYRO3): 100 to 1000 nM

CCCC(C)Nc1ncc2c(O[C@@H]3CCCN(C)C3)ncc([C@H]3CC[C@H](O)CC3)c2n1 (stereo partly drawn) [Compound 214]
IC50 (MERTK): ≤ 100 nM
Mer/Flt3 ratio (FLT3 IC50/Mer IC50) (MERTK): ++ (a ratio of between 10 and 100)
IC50 (TYRO3): ≤ 100 nM

CCOc1ncc(C2CCN(C)CC2)c2nc(N[C@@H](C)CC)ncc12 [Compound 215]
IC50 (MERTK): 100 to 1000 nM
Mer/Flt3 ratio (FLT3 IC50/Mer IC50) (MERTK): ++ (a ratio of between 10 and 100)
IC50 (TYRO3): ≤ 100 nM
